Experimental data as given in patent US11324219B2, “Amide compound or salt thereof, agricultural and horticultural microbicide comprising the compound and the salt, and method for using the agricultural and horticultural microbicide” (Nihon Nohyaku Co., Ltd., priority 2018, dated 2022).

melting point: 160 to 162 °C
SMILES: CCS(=O)(=O)c1cc(C(F)(F)F)ccc1C(=O)Nc1oc(C(F)(F)F)cc1Br [Compound 1-23, N-[3-bromo-5-(trifluoromethyl)furan-2-yl]-2-(ethylsulfonyl)-4-(trifluoromethyl)benzamide]
